Data reported in ChEMBL document CHEMBL6109109, “Fatty acid binding protein 5 inhibitors as novel anticancer agents against metastatic castration-resistant prostate cancer” (Bioorg Med Chem, 2025).

Assays:
PC-3 [1] = assay: Synergistic anticancer activity against human PC-3 cells assessed as cell growth inhibition at 10 uM measured after 72 hrs in presence of 10 uM of topotecan by MTT assay relative to control; assay type: functional; settings: read-out: GI
[2] = Synergistic anticancer activity against mouse RCaP cells assessed as cell growth inhibition at 10 uM measured after 72 hrs in presence of 0.1 uM of topotecan by MTT assay relative to control; assay type: functional; settings: read-out: GI
PC-3 [3] = assay: Induction of apoptosis in human PC-3 cells assessed as late apoptotic cells at 15 uM measured after 72 hrs by Annexin V-FITC/propidium iodide staining based FACS analysis (reference value: 1.73%); assay type: functional
PC-3 [4] = assay: Induction of apoptosis in human PC-3 cells assessed as early apoptotic cells at 15 uM measured after 72 hrs by Annexin V-FITC/propidium iodide staining based FACS analysis (reference value: 0.54%); assay type: functional
PC-3 [5] = assay: Induction of apoptosis in human PC-3 cells assessed as necrotic cells at 15 uM measured after 72 hrs by Annexin V-FITC/propidium iodide staining based FACS analysis (reference value: 0.11%); assay type: functional
PC-3 [6] = assay: Synergistic anticancer activity against human PC-3 cells assessed as cell growth inhibition at 20 uM measured after 72 hrs in presence of 0.01 uM of topotecan by MTT assay relative to control; assay type: functional; settings: read-out: GI
PC-3 [7] = assay: Cytotoxicity against human PC-3 cells assessed as reduction in cell viability measured after 72 hrs by MTT assay; assay type: functional, cell-based; settings: PC-3, 72 h
[8] = Synergistic anticancer activity against mouse RCaP cells assessed as cell growth inhibition at 10 uM measured after 72 hrs in presence of 0.001 uM of topotecan by MTT assay relative to control; assay type: functional; settings: read-out: GI
[9] = Synergistic anticancer activity against mouse RCaP cells assessed as cell growth inhibition at 5 uM measured after 72 hrs in presence of 1 uM of topotecan by MTT assay relative to control; assay type: functional; settings: read-out: GI
[10] = Synergistic anticancer activity against mouse RCaP cells assessed as cell growth inhibition at 5 uM measured after 72 hrs in presence of 0.001 uM of topotecan by MTT assay relative to control; assay type: functional; settings: read-out: GI
[11] = Synergistic anticancer activity against mouse RCaP cells assessed as cell growth inhibition at 20 uM measured after 72 hrs in presence of 10 uM of topotecan by MTT assay relative to control; assay type: functional; settings: read-out: GI
[12] = Synergistic anticancer activity against mouse RCaP cells assessed as cell growth inhibition at […] measured after 72 hrs in presence of 10 uM of topotecan by MTT assay relative to control; assay type: functional; settings: dose 2.5 µM, read-out: GI
[13] = Synergistic anticancer activity against mouse RCaP cells assessed as cell growth inhibition at 10 uM measured after 72 hrs in presence of 0.00001 uM of topotecan by MTT assay relative to control; assay type: functional; settings: read-out: GI
[14] = Synergistic anticancer activity against mouse RCaP cells assessed as cell growth inhibition at 5 uM measured after 72 hrs in presence of 0.00001 uM of topotecan by MTT assay relative to control; assay type: functional; settings: read-out: GI
[15] = Synergistic anticancer activity against mouse RCaP cells assessed as cell growth inhibition at 20 uM measured after 72 hrs in presence of 0.01 uM of topotecan by MTT assay relative to control; assay type: functional; settings: read-out: GI
PC-3 [16] = assay: Synergistic anticancer activity against human PC-3 cells assessed as cell growth inhibition at 5 uM measured after 72 hrs in presence of 0.00001 uM of topotecan by MTT assay relative to control; assay type: functional; settings: read-out: GI
PC-3 [17] = assay: Synergistic anticancer activity against human PC-3 cells assessed as cell growth inhibition at 5 uM measured after 72 hrs in presence of 0.001 uM of topotecan by MTT assay relative to control; assay type: functional; settings: read-out: GI
PC-3 [18] = assay: Induction of apoptosis in human PC-3 cells assessed as viable cells at 15 uM measured after 72 hrs by Annexin V-FITC/propidium iodide staining based FACS analysis (reference value: 97.62%); assay type: functional; settings: read-out: Activity
[19] = Synergistic anticancer activity against mouse RCaP cells assessed as cell growth inhibition at […] measured after 72 hrs in presence of 0.0001 uM of topotecan by MTT assay relative to control; assay type: functional; settings: dose 2.5 µM, read-out: GI
PC-3 [20] = assay: Synergistic anticancer activity against human PC-3 cells assessed as cell growth inhibition at 10 uM measured after 72 hrs in presence of 0.001 uM of topotecan by MTT assay relative to control; assay type: functional; settings: read-out: GI
[21] = Synergistic anticancer activity against mouse RCaP cells assessed as cell growth inhibition at 5 uM measured after 72 hrs in presence of 10 uM of topotecan by MTT assay relative to control; assay type: functional; settings: read-out: GI
[22] = Synergistic anticancer activity against mouse RCaP cells assessed as cell growth inhibition at 10 uM measured after 72 hrs in presence of 0.0001 uM of topotecan by MTT assay relative to control; assay type: functional; settings: read-out: GI
PC-3 [23] = assay: Synergistic anticancer activity against human PC-3 cells assessed as cell growth inhibition at 5 uM measured after 72 hrs in presence of 0.1 uM of topotecan by MTT assay relative to control; assay type: functional; settings: read-out: GI
PC-3 [24] = assay: Synergistic anticancer activity against human PC-3 cells assessed as cell growth inhibition at 10 uM measured after 72 hrs in presence of 0.1 uM of topotecan by MTT assay relative to control; assay type: functional; settings: read-out: GI
PC-3 [25] = assay: Synergistic anticancer activity against human PC-3 cells assessed as cell growth inhibition at 20 uM measured after 72 hrs in presence of 0.00001 uM of topotecan by MTT assay relative to control; assay type: functional; settings: read-out: GI
[26] = Synergistic anticancer activity against mouse RCaP cells assessed as cell growth inhibition at […] measured after 72 hrs in presence of 0.01 uM of topotecan by MTT assay relative to control; assay type: functional; settings: dose 2.5 µM, read-out: GI
[27] = Cytotoxicity against mouse RCap cells assessed as reduction in cell viability measured after 72 hrs by MTT assay; assay type: functional, cell-based
[28] = Binding affinity to FABP5 (unknown origin); parameters: species or system Homo sapiens
[29] = Synergistic anticancer activity against mouse RCaP cells assessed as cell growth inhibition at 1.25 uM measured after 72 hrs in presence of 0.00001 uM of topotecan by MTT assay relative to control; assay type: functional; settings: read-out: GI
PC-3 [30] = assay: Synergistic anticancer activity against human PC-3 cells assessed as cell growth inhibition at 1.25 uM measured after 72 hrs in presence of 1 uM of topotecan by MTT assay relative to control; assay type: functional; settings: read-out: GI
PC-3 [31] = assay: Synergistic anticancer activity against human PC-3 cells assessed as cell growth inhibition at 1.25 uM measured after 72 hrs in presence of 0.00001 uM of topotecan by MTT assay relative to control; assay type: functional; settings: read-out: GI
PC-3 [32] = assay: Synergistic anticancer activity against human PC-3 cells assessed as cell growth inhibition at 0.625 uM measured after 72 hrs in presence of 10 uM of topotecan by MTT assay relative to control; assay type: functional; settings: read-out: GI
PC-3 [33] = assay: Synergistic anticancer activity against human PC-3 cells assessed as cell growth inhibition at […] measured after 72 hrs in presence of 0.1 uM of topotecan by MTT assay relative to control; assay type: functional; settings: dose 2.5 µM, read-out: GI
PC-3 [34] = assay: Cytotoxicity against human PC-3 cells assessed as cell growth inhibition at 0.625 uM measured after 72 hrs by MTT assay relative to control; assay type: functional; settings: read-out: GI
PC-3 [35] = assay: Synergistic anticancer activity against human PC-3 cells assessed as cell growth inhibition at […] measured after 72 hrs in presence of 1 uM of topotecan by MTT assay relative to control; assay type: functional; settings: dose 2.5 µM, read-out: GI

Row | SMILES | inhibition of growth at 10 µM (PC-3 [1]) [%] | inhibition of growth at 10 µM [2] [%] | inhibition of growth at 20 µM (PC-3 [6]) [%] | IC50 (PC-3 [7]) [µM] | inhibition of growth at 10 µM [8] [%] | inhibition of growth at 5 µM [9] [%] | inhibition of growth at 5 µM [10] [%] | inhibition of growth at 20 µM [11] [%] | inhibition of growth at […] [12] [%] | inhibition of growth at 10 µM [13] [%] | inhibition of growth at 5 µM [14] [%] | inhibition of growth at 20 µM [15] [%] | inhibition of growth at 5 µM (PC-3 [16]) [%] | inhibition of growth at 5 µM (PC-3 [17]) [%] | inhibition of growth at […] [19] [%] | inhibition of growth at 10 µM (PC-3 [20]) [%] | inhibition of growth at 5 µM [21] [%] | inhibition of growth at 10 µM [22] [%] | inhibition of growth at 5 µM (PC-3 [23]) [%] | inhibition of growth at 10 µM (PC-3 [24]) [%] | also measured
1 | COc1ccccc1[C@H]1[C@H](C(=O)O)[C@H](c2ccccc2OC)[C@H]1C(=O)OCC1c2ccccc2-c2ccccc21 | 86.2 | 94.3 | 99.8 | 10.5 | 76.7 | 99 | 32.3 | 99.3 | 99.6 | 76.5 | 9.57 | 98.2 | 24.6 | 28.7 | -4.8 | 60.9 | 99.4 | 75.1 | 56.3 | 66.8 | Activity (PC-3 [3]): 5.63%; Activity (PC-3 [4]): 5.38%; Activity (PC-3 [5]): 0.3%; viability at 15 µM (PC-3 [18]): 88.7%; inhibition of growth at 20 µM (PC-3 [25]): 99.3%; inhibition of growth at […] [26]: 11.7%
2 | O=C(O)[C@H]1[C@H](c2ccccc2)[C@H](C(=O)Oc2cc(-c3ccc4c(c3)OCO4)ccc2-c2ccccc2)[C@H]1c1ccccc1 | 90.8 | 97.2 | 98.2 | 9.89 | 71.9 | 97.9 | 28.3 | 99.2 | 99.9 | 68.4 | 27 | 97.8 | 28.5 | 29.1 | 10.1 | 81.1 | 99.6 | 68 | 49.9 | 82.4 | IC50 [27]: 12.3 µM; Ki [28]: 0.66 µM; inhibition of growth at 20 µM (PC-3 [25]): 98.1%; inhibition of growth at […] [26]: 12.2%
3 | COc1ccccc1[C@H]1[C@H](C(=O)O)[C@H](c2ccccc2OC)[C@H]1C(=O)Oc1cc(-c2ccc3c(c2)OCO3)ccc1-c1ccccc1 | 92.2 | 89.9 | 98.7 | 6.52 | 88.4 | 97.9 | 36.1 | 100 | 98.9 | 89.5 | 27.6 | 100 | 44.3 | 43.5 | -3.7 | 72.4 | 99.1 | 89.4 | 66.6 | 81.4 | IC50 [27]: 3.44 µM; inhibition of growth at 1.25 µM [29]: -1.87%; Activity (PC-3 [3]): 52.11%; Activity (PC-3 [4]): 20.86%; Activity (PC-3 [5]): 1.25%; inhibition of growth at 1.25 µM (PC-3 [30]): 92.3%; Ki [28]: 0.65 µM; viability at 15 µM (PC-3 [18]): 25.8%; inhibition of growth at 1.25 µM (PC-3 [31]): 12.9%; inhibition of growth at 0.625 µM (PC-3 [32]): 93.2%; inhibition of growth at […] (PC-3 [33]): 67.4%; inhibition of growth at 0.625 µM (PC-3 [34]): -2.63%; inhibition of growth at […] (PC-3 [35]): 90.5%; inhibition of growth at 20 µM (PC-3 [25]): 99.7%; inhibition of growth at […] [26]: 20.6%
